Measurements taken from US6642256B2, “Piperidine derivatives as subtype selective N-Methyl-D-Aspartate antagonists” (Warner-Lambert Company LLC, priority 2000, dated 2003).

Target: T1, NR1A/NR2B NMDA receptor subtype (Rattus norvegicus, UniProt P35439+Q00960)
T1 construct: buffy coat membrane fraction was prepared from frozen adult rat forebrains; tissue Zivic-Miller Laboratories, Inc; host or cells: adult rat forebrain membranes
Experiment: [3H]Ifenprodil binding assay (IFPNR), rat forebrain membranes
Details: Table 1, 4 nM [3H]-ifenprodil, read-out: IFPNR (IC50 μM)
Description: b. [^3H]Ifenprodil Binding Assay (IFPNR) Protocol:
Ifenprodil, [phenyl-^3H]-(specific activity, 66.2 Ci/mmol) was purchased from Dupont NEN Research Products (Boston, Mass.). Ifenprodil tartrate was purchased from Research Biochemicals International (Natick, Mass.). HEPES, glutamate and glycine were purchased from Sigma Chemical Co. (St. Louis, Mo.).
All buffers and reagents used in assay incubations or to dissolve drugs were prepared using water purified through a Milli-Q reverse osmosis system (Millipore Corp., Bedford, Mass.) and treated with UV emissions. Prior to use in the assays buffers were further filtered through a sterile Coming filtration unit (Coming Glass Works, Coming, N.Y.) containing a 0.2 micron filter. Buffer used to rinse the membranes on the assay filters was prepared with purified water, but was not refiltered and was stored no longer than 5 days. Stock solutions of the drugs (usually 10 mM) were dissolved in 20 mM HEPES-KOH buffer pH 7.4 (assay buffer) with the addition of 1 to 5 μL of glacial AcOH, if needed to keep them in solution. Eliprodil was used as the reference NMDA antagonist. A stock solution of eliprodil was prepared, and was buffered with the addition of 10% DMSO. All subsequent dilutions from the stock solution were made in buffer.
An extensively washed buffy coat membrane fraction was prepared from frozen adult rat forebrains (Zivic-Miller Laboratories, Inc., Zelienople, Pa.) as described by Coughenour L. L.; Cordon, J. J., J. Pharmacol. Exp. Ther., 1997;280:584-592, and stored at −80° C. On the day of the assay, pellets of the frozen membrane fractions were resuspended in 35 mL of assay buffer at pH 7.4 using a POLYTRON (Kinematica A. G. Company, Littau, Switzerland) mixer at setting 6. After incubation at 37° C. for 30 minutes in a shaking water bath, the homogenate was centrifuged 40,000×g for 10 minutes at 4° C. The pellets were resuspended in fresh buffer and centrifuged 3 more times before final suspension for use in the assay.
(iii) [^3H]Ifenprodil Binding protocol:
Triplicate incubations were carried out in a volume of 0.5 mL in 1.3 mL polypropylene tubes (Marsh Biomedical Products Inc, Rochester, N.Y.) for 2 hours at room temperature. Incubations contained invention compounds, membranes (100-200 μg protein) and 4 nM [^3H]-ifenprodil in 20 mM HEPES-KOH buffer, pH 7.4 (assay buffer). Assays were started by addition of the membranes. Bound radioligand was separated by filtration under reduced pressure using a TOMTEC Mach II, 96-well cell harvester (Tomtec Inc, Orange, Conn.). Filtration was through Whatman GF/B glass fiber filters (Whatman Ltd., Maidstone, England), which had been soaked for at least 15 minutes in 0.3% polyethylenimine and allowed to air dry. The filters were rinsed with 3 mL of ice cold assay buffer within 6 seconds. Air was allowed to pass through the filters for an additional 10 seconds to remove residual moisture. The filter mat was supported on a cold (−20° C.) TEFLON (E. I. Du Pont de Nemours and Company, Wilmington, Del.) coated support, and filters from individual wells were separated and placed in Mini Poly-Q vials (Becklman Instruments Inc, Fullerton, Calif.) and filled with 4 mL of scintillation cocktail (Beckman Ready Protein^+). Radioactivity retained on the filter was determined by liquid scintillation spectrophotometry. Nonspecific binding was defined as the binding in the presence of […] ifenprodil. Ninety percent of the total binding of ifenprodil was specific binding at the NR1A/NR2B NMDA receptor subtype active site (as opposed to binding at a remote site).
Binding curves were statistically analyzed for a best 1- or 2-site competition fit using GRAPHPAD PRISM software (GraphPad Software Inc, San Diego, Calif.), a computer program used to analyze and graph scientific data. The normalized data was fitted by nonweighted nonlinear regression to either [formula]
Control data was entered as 100%, and no parameters were constrained. […]

T1 sequence (Q00960 27-1482, other chains not shown): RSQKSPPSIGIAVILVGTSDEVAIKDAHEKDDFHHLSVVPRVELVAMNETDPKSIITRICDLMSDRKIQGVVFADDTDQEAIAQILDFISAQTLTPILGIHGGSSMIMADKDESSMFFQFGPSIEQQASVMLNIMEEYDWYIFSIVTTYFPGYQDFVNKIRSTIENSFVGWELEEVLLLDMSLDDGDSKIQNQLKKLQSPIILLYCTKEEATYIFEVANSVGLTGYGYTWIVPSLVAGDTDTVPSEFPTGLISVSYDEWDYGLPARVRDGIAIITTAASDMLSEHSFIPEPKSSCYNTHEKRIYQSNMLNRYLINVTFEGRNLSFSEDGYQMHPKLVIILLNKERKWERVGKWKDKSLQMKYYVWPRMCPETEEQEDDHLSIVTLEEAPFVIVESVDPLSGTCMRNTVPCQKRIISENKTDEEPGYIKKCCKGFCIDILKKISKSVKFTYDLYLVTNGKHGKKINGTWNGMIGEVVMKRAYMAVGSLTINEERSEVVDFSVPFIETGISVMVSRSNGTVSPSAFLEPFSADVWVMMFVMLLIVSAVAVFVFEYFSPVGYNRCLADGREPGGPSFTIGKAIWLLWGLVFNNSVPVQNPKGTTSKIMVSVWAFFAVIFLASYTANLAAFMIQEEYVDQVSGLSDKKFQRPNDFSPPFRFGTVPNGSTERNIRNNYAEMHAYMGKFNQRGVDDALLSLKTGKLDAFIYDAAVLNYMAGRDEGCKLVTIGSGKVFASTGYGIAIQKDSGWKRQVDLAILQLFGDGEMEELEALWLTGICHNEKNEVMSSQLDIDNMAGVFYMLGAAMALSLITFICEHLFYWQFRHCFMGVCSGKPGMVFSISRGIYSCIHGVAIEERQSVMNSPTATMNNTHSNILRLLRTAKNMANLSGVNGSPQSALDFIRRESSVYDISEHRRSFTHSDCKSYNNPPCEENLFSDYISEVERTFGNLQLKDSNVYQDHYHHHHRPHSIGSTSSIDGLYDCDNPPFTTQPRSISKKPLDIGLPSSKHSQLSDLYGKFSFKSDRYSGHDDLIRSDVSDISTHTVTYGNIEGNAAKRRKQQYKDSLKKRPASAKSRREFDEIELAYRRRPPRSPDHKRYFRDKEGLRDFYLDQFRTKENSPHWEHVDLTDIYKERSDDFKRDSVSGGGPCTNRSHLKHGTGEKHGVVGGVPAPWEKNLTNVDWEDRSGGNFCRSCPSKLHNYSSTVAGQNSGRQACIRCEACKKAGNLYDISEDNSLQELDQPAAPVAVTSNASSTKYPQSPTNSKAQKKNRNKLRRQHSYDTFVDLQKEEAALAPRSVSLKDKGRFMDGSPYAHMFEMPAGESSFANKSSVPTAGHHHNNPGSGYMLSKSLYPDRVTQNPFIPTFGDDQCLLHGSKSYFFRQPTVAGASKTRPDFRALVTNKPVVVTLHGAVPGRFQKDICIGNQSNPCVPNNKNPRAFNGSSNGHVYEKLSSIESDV

Compound	IC50 [µM]
O=c1[nH]c2ccc(C3=NOC(CN4CCC(Cc5ccccc5)CC4)C3)cc2o1 (racemic) [Example 1, 6-[5-(4-Benzylpiperidin-1-ylmethyl)-4,5-dihydroisoxazol-3-yl]-3H-benzoxazol-2-one]	0.033
O=c1[nH]c2ccc(C3=NOC(CN4CCC(Cc5ccc(F)cc5)CC4)C3)cc2o1 (single isomer, unassigned; (-)) [Example 4b, (−)-6-{5-[4-(4-Fluorobenzyl)piperidin-1-ylmethyl]4,5-dihydroisoxazol-3-yl}-3H-benzoxazol-2-one]	0.28
